A short description of data set [1]: Cytotoxicity against african green monkey CV1 cells. It is filed as cell-based. The note with it: chlorocebus aethiops, cv-1.
The subject of the next data set is P388. Nature of the data set: Cytotoxicity against mouse P388 cells at 1 ug/ml. It is filed as functional, cell-based.

Each structure is given as a SMILES string. Calls of active or inactive are those of the source. The rule behind the calls is not given here.

Turning to `C[C@H]1CCC=C2CCC(C(C)(O)CO)=C[C@@]21C` (some centres not stated), the Activity in data set [1] was 10 µg/mL. Further, the outcome in the data set on P388 was Active.

These data come from ChEMBL document CHEMBL1147351, “Sesquiterpenoids and norsesquiterpenoids from the soft coral Lemnalia africana” (J Nat Prod, 1993).
